Assay results from ChEMBL document CHEMBL4229414, “Design and synthesis of bridged piperidine and piperazine isosteres” (Bioorg Med Chem Lett, 2018).

What was measured:
hERG (KCNH2) [1] = target: T1, hERG (KCNH2) (Homo sapiens, UniProt Q12809); experiment: (§1) Inhibition of human ERG at 10 uM relative to control
[2] = Stability in mouse microsomes; type: ADME, Microsome; note: time not given here
[3] = target: D(2) dopamine receptor (Homo sapiens) (UniProt P14416); experiment: Agonist activity at human D2L receptor expressed in CHOK1 cells assessed as inhibition of receptor response at 10 uM by calcium flux assay relative to control; type: functional, cell-based
Sequence of D(2) dopamine receptor (Homo sapiens) (P14416 whole entry): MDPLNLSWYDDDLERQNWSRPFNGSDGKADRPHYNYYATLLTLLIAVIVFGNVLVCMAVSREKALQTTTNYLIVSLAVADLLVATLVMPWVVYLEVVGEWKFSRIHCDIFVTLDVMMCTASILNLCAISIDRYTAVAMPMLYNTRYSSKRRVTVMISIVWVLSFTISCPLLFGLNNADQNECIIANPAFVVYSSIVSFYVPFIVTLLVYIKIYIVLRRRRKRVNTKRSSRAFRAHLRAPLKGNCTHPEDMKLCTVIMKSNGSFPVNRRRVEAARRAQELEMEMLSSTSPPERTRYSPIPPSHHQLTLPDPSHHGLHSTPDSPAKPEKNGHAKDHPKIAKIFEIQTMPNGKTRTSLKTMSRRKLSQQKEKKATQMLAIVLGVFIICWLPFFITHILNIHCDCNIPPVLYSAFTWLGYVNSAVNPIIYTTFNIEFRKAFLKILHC

hERG (KCNH2) [4] = target: T1, hERG (KCNH2); experiment: (§2) Inhibition of human ERG at 3 uM relative to control
hERG (KCNH2) [5] = target: T1, hERG (KCNH2); experiment: (§3) Inhibition of human ERG at 1 uM relative to control
[6] = Stability in rat microsomes; type: ADME, Microsome; note: time not given here
[7] = Stability in human microsomes; type: ADME, Microsome; note: time not given here
[8] = Efflux ratio of permeability in human Caco2 cells; type: ADME, cell-based; settings: caco-2
[9] = Passive permeability in human Caco2 cells; type: ADME, cell-based; settings: caco-2
[10] = target: D(2) dopamine receptor (Homo sapiens) (UniProt P14416); experiment: Antagonist activity at human D2L receptor expressed in CHOK1 cells assessed as inhibition of dopamine-induced calcium flux at 0.1 uM by fluorescence assay relative to control; type: functional, cell-based
Homo sapiens [11] = organism: Homo sapiens; experiment: Agonist activity at recombinant human D4.4 expressed in CHOK1 cells assessed as inhibition of receptor response at 10 uM by HTRF based cAMP assay relative to control; type: cell-based
Homo sapiens [12] = organism: Homo sapiens; experiment: Agonist activity at recombinant human D4.4 expressed in CHOK1 cells assessed as inhibition of receptor response at 0.1 uM by HTRF based cAMP assay relative to control; type: cell-based
[13] = target: D(2) dopamine receptor (Homo sapiens) (UniProt P14416); experiment: Agonist activity at human D2L receptor expressed in CHOK1 cells assessed as inhibition of receptor response at 0.1 uM by calcium flux assay relative to control; type: functional, cell-based
[14] = target: D(2) dopamine receptor (Homo sapiens) (UniProt P14416); experiment: Antagonist activity at human D2L receptor expressed in CHOK1 cells assessed as inhibition of dopamine-induced calcium flux at 10 uM by fluorescence assay relative to control; type: functional, cell-based
[15] = target: T2, Voltage-gated inwardly rectifying potassium channel KCNH2 (Homo sapiens, UniProt Q12809); experiment: as §1; settings: 10 µM
T2 sequence (Q12809 whole entry): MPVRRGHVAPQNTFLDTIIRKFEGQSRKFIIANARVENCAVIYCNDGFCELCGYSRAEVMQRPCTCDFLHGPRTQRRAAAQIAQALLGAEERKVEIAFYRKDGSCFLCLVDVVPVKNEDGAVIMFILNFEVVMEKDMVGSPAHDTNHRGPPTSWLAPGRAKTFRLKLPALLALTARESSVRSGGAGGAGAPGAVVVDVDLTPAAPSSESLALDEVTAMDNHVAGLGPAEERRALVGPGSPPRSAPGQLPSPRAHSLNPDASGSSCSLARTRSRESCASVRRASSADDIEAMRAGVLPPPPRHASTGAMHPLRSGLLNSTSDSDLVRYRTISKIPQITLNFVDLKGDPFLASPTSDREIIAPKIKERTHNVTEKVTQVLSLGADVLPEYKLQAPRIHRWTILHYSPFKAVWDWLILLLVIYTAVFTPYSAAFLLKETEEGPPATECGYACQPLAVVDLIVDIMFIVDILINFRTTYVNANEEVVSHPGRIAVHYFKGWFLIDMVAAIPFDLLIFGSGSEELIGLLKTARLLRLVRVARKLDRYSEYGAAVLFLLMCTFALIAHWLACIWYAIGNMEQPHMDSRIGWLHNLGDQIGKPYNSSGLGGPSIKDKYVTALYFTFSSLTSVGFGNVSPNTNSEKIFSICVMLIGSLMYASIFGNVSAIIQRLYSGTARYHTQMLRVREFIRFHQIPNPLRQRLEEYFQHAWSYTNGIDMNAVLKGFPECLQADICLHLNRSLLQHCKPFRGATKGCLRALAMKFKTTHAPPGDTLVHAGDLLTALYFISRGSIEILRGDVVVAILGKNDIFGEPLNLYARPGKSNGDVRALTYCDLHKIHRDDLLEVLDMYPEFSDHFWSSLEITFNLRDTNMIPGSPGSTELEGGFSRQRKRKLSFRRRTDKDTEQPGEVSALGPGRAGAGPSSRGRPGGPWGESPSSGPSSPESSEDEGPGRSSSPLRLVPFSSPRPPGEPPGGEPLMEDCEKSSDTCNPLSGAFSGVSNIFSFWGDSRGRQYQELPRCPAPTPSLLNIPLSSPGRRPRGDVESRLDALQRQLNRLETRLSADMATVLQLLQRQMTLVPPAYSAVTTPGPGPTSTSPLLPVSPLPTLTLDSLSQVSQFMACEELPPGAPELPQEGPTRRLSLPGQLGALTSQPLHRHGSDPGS

[16] = target: T2, Voltage-gated inwardly rectifying potassium channel KCNH2; experiment: as §3; settings: 1 µM
[17] = target: T2, Voltage-gated inwardly rectifying potassium channel KCNH2; experiment: as §2; settings: 3 µM

T1 sequence (Q12809 whole entry): as above

SMILES	inhibition at 10 µM (hERG (KCNH2) [1]) [%]	Stability [2] [%]	inhibition [3] [%]	inhibition at 3 µM (hERG (KCNH2) [4]) [%]	inhibition at 1 µM (hERG (KCNH2) [5]) [%]	Stability [6] [%]	Stability [7] [%]	efflux ratio [8]	permeability [9] [%]	inhibition [10] [%]	inhibition (Homo sapiens [11]) [%]	inhibition (Homo sapiens [12]) [%]	inhibition [13] [%]	inhibition [14] [%]	inhibition (INH) [15] [%]	inhibition (INH) [16] [%]	inhibition (INH) [17] [%]	Ratio [8]
CCCN1[C@H]2CC[C@H]1CC(O)(c1ccccc1OC)C2 (relative stereo)	46	54	-8	19	7	12	100	1.2	100	–	–	–	–	–	–	–	–	–
CCCN1[C@H]2CC[C@H]1CC(c1ccc(OC)c(OC)c1)C2 (relative stereo)	85	21	20	62	36	4	50	3.4	99	8	17	-1	6	11	–	–	–	–
CCCN1C[C@H]2OC[C@@H]1C[C@@H]2c1ccccc1OC	15	4	16	3	0	3	100	0.8	100	–	–	–	25	–	–	–	–	–
CCCN1CCC(c2ccccc2OC)CC1	14	30	99	5.5	2	4	86	1	100	-7	12	9	52	14	–	–	–	–
CCCN1C[C@H]2OC[C@@H]1C[C@H]2c1ccccc1OC	22	9	7	9	3	3	41	0.8	100	-6	21	5	4	13	–	–	–	–
CCCN1[C@H]2COC[C@H]1CC(c1ccccc1OC)C2 (relative stereo; 20) [listing 1 of 2 here]	–	2	–	34	–	1	42	2.3	100	–	–	–	–	–	64	17	–	–
CCCN1[C@@H]2COC[C@H]1CN(c1ccccc1OC)C2	12	18	19	2	2	4	70	0.9	100	9	3	3	3	5	–	–	–	–
CCCN1[C@H]2CC[C@H]1CC(c1ccccc1OC)C2 (relative stereo; 8a) [listing 1 of 2 here]	–	–	35	–	–	–	–	–	–	14	–	-3	2	29	–	–	–	–
CCCN1[C@H]2COC[C@H]1CC(c1ccccc1OC)C2 (relative stereo; 20) [listing 2 of 2 here]	–	–	30	–	–	–	–	–	–	10	–	14	22	12	–	–	–	–
CCCN1[C@H]2COC[C@H]1CC(c1ccccc1OC)C2 (relative stereo; 16) [listing 1 of 2 here]	–	7	–	–	–	–	35	–	–	–	–	–	–	–	39	6	17	3.1
CCCN1[C@H]2CC[C@H]1CC(c1ccccc1OC)C2 (relative stereo; 4) [listing 1 of 2 here]	–	6	–	–	–	–	62	–	99.7	–	–	–	–	–	56.5	10	25	4.1
CCCN1[C@H]2CC[C@H]1CC(c1ccccc1OC)C2 (relative stereo; 4) [listing 2 of 2 here]	–	–	0	–	–	–	–	–	–	19	11	10	8	22	–	–	–	–
CCCN1[C@H]2CC[C@H]1CC(c1ccccc1OC)C2 (relative stereo; 8a) [listing 2 of 2 here]	74	3	–	–	–	2	25	2.9	100	–	–	–	–	–	–	22	46	–
CCCN1C[C@H]2OC[C@@H]1C[C@]2(O)c1ccccc1OC	14	55	3	5	4	15	100	0.6	100	12	-6	6	6	16	–	–	–	–
CCCN1[C@H]2CC[C@H]1CC(c1cc(OC)c(OC)c(OC)c1)C2 (relative stereo)	66	5	4	40	20	4	100	5.6	99	12	-1	–	0	8	–	–	–	–
CCCN1[C@H]2COC[C@H]1CC(c1ccccc1OC)C2 (relative stereo; 16) [listing 2 of 2 here]	–	–	11	–	–	–	–	–	–	21	20	3	4	34	–	–	–	–
CCCN1[C@H]2CC[C@H]1CC(c1ccc(OC)cc1)C2 (relative stereo)	93	5	40	78	58	2	8	3	100	0	21	9	-1	9	–	–	–	–
CCCN1[C@H]2CC[C@H]1CC(c1cccc(OC)c1)C2 (relative stereo)	81	3	32	54	30	2	4	2.6	100	12	16	4	9	13	–	–	–	–
CCCN1C[C@H]2OC[C@@H]1C[C@@]2(O)c1ccccc1OC	6	18	16	4	3	53	66	3	100	4	15	4	25	4	–	–	–	–
CCCN1CCN(c2ccccc2OC)CC1	41	2	99	16	8	2	63	1.1	100	–	12	9	50	-1	–	–	–	–
